From publication PMC7042063 (Chembiochem : a European journal of chemical biology, 2019)

What was measured:
Format in all cases: biochemical
UCHL3 [1] = target: T1, UCHL3 (Homo sapiens, UniProt P15374); test: Ub-Rho cleavage assay, purified enzyme, […] min preincubation
T1 sequence (P15374 1-230): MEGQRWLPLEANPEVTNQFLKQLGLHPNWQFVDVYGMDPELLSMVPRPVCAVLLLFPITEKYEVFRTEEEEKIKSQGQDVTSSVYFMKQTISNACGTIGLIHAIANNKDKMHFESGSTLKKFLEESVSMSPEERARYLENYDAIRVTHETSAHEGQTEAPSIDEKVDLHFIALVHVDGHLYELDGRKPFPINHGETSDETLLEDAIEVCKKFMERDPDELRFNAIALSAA

[2] = target: T2, Ubiquitin C-terminal Hydrolase L1 (UCHL1) (Homo sapiens, UniProt P09936); test: inhibition IC50 of UCHL1
T2 sequence (P09936 1-220): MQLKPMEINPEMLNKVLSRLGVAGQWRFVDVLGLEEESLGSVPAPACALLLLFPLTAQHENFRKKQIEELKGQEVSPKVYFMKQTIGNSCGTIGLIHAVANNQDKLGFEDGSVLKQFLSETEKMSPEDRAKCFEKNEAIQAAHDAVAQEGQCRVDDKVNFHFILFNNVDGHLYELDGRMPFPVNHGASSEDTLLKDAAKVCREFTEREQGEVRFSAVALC

UCHL3 [3] = target: T1, UCHL3; test: Ub-Rho cleavage assay, purified enzyme

IC50 (UCHL3 [1])	IC50 [2]	IC50 (UCHL3 [3])	SMILES
6.4 µM	–	–	N#CN1CCC[C@H]1C(=O)N1CCc2c(-c3cn[nH]c3C(F)(F)F)cccc21 [compound 1, (S)-2-(4-(5-(trifluoromethyl)-1H-pyrazol-4-yl)indoline-1-carbonyl)pyrrolidine-1-carbonitrile]
–	6.4 µM	5.5 µM	C#CCCn1cc(-c2cccc3c2CCN3C(=O)[C@@H]2CCCN2C#N)c(C(F)(F)F)n1 [compound 2, (S)-2-(4-(1-(but-3-yn-1-yl)-3-(trifluoromethyl)-1H-pyrazol-4-yl)indoline-1-carbonyl)pyrrolidine-1-carbonitrile]
